# Laboratory results reported in US6943151B2, “Method of inhibiting bone resorption and/or promoting bone formation using GLP-2 and related compounds” (Sanos Bioscience A/S, priority 2000, dated 2005).
# Columns and labels:
# [1] = system: GLP-1; assay: Level of GLP-1 in blood after oral nutrient intake; type: in vivo, human; conditions: after 2 hours; oral 75 g fructose; healthy women and men
# Excerpt: (§1) 12 healthy women and men between 30-45, respectively 30-60, were included in a randomised, controlled cross over study comparing the effects of oral fructose on GLP-1, on GIP and on bone turnover. The individuals had not suffered diseases suspected to affect bone turnover such as cancer, rheumatoid arthritis or diseases compromising absorption from the gut or excretion/re-absorption from the kidney nor had they a history of serious diseases, which might influence the conduct of the study. A general laboratory screening including haematology and serum chemistry gave no indication of specific organ dysfunction. The individuals were not under influence of bone active medication, thus more than 3 months had passed since previous treatment with calcium, vitamin D, oestrogen or progestin in any administration form and the individuals had never been treated with bisphosphonates or fluoride.
# After fasting from 10 p.m. the evening prior to an experiment, blood samples were collected between 7:30 a.m. and 8:30 a.m. Immediately thereafter oral fructose were initiated. […]
# The normal mixed meal consisted of rye bread, toast, butter, cheese, jam, yoghurt, banana, and orange juice (total weight 755 g), with an energy content of 3.92 MJ and a protein:carbohydrate:fat energy ratio of 10%:52%:37% evaluated from food tables.
# [2] = system: S-CTX (bone resorption); assay: Serum C-telopeptide fragments of collagen type I degradation (S-CTX) by serum CrossLaps ELISA, marker of bone resorption, after administration to human subjects; type: in vivo
# Description: In these Examples Haematology and serum chemistry including glucose were measured using an auto analyser (Vitros). Serum FSH was measured by IRMA (Coat-A-Count®, DPC, Los Angeles, Calif.). Serum C-telopeptide fragments of collagen type I degradation (S-CTX) were measured by ELISA, serum CrossLaps™ assay (Osteometer BioTech A/S—Denmark). Serum osteocalcin was determined by ELISA, an assay which determines the N-terminal mid segment of the molecule. Serum insulin and c-peptide were both assessed by RIA (Coat-A-Count® for insulin and Double Antibody C-peptide for c-peptide both DPC, Los Angeles, Calif.).
# as §1, with “The individuals were not under influence of bone active medication, thus more than 3 months had passed since previous treatment with calcium, vitamin D, oestrogen or progestin in any administration form and the individuals had never been treated with bisphosphonates or fluoride.” left out
# [3] = system: GIP; assay: Level of GIP in blood after oral nutrient intake; type: in vivo, human; conditions: oral 75 g fructose; healthy women and men; result in words
# Excerpt: as §1
# After fasting from 10 p.m. the evening prior to an experiment, blood samples were collected between 7:30 a.m. and 8:30 a.m. Immediately thereafter oral fructose were initiated. At precisely 1, 2, 3, 6 and 9 hours after the first blood sample, blood samples were collected. A washout period of 2 weeks was instituted between each experiment.
# Oral fructose consisted of 75 g fructose dissolved in 300 ml water with juice of a half lemon added. […]
# [4] = Level of GLP-2 in blood after subcutaneous GLP-2 injection; type: in vivo; conditions: subcutaneous bolus injection of 400 μg synthetic human GLP-2; healthy women and men
# Excerpt: 6 healthy women and 3 healthy men between 24-53 were included in a study comparing the effect of a GLP-2 injection on GLP-2intact and on bone turnover.
# The description of the methodology of measurement of GLP-2intact and total GLP-2 and the description of the test persons was as described in detail in Hartmann, B. et al., J Clin Endocrinol Metab 2000; 85 (8):2884-2888.
# Blood samples were drawn at regular intervals before, during, and after the injection.
# The test persons received a subcutaneous bolus injection of 400 μg synthetic human GLP-2.
Molecule,occurrence (level) of GLP-1 compared to the baseline of 100% at To [1],"reduction in S-CTX ([2]; after 2 hours, oral intake after overnight fast, 12 healthy women and men)",level of GIP [3],time to peak level of GLP-2 after the injection [4],"reduction in S-CTX ([2]; after 3 hours, subcutaneous bolus injection of 400 μg, 6 healthy women and 3 healthy men)"
O=C(CO)[C@@H](O)[C@H](O)[C@H](O)CO [fructose],220%,36%,almost maintained at the baseline,–,–
"GLP-2: synthetic human GLP-2, 33 amino acid peptide fragment of proglucagon (126-158)",–,–,–,1 h,33%
